This is an account of results in patent US20250059156A1, “THERAPEUTIC ALKALOID COMPOUNDS” (Sensorium Therapeutics, Inc., priority 2022, published 2025).

The structures appear in SMILES notation.

For one experiment, the target named is PDE4C1 (Homo sapiens (Human), UniProt Q08493). Nature of the experiment: PDE4 percent inhibition assay. The class given is biochemical. As to conditions: for inhibition at 10 µM: read-out: PDE4 Isoform % Inhibition @ 10 μM PDE4C1. How it is done: (§1) PDE4 assay kit (BPS Bioscience, San Diego, CA), as described below.
Chain of PDE4C1 (Q08493 whole entry, canonical isoform): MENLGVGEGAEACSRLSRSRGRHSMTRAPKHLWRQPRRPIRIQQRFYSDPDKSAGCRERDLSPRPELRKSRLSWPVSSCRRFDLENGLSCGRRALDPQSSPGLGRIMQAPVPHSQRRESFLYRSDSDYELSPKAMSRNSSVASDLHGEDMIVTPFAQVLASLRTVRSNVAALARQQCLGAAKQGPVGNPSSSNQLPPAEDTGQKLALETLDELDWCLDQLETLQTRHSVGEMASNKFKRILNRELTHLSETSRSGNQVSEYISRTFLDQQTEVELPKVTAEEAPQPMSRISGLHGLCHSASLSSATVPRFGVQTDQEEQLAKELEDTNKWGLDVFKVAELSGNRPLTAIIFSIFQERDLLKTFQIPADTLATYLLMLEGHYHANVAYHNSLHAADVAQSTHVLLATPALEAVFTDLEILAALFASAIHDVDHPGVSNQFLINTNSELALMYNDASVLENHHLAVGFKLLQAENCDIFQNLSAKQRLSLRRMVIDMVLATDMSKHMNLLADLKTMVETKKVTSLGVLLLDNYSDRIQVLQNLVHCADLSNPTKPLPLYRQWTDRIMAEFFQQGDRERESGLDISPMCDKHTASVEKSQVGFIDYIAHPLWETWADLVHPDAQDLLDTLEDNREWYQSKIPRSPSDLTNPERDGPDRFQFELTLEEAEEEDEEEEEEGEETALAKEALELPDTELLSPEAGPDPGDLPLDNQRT
(§2) • 1) Dilute 20 μM FAM-Cyclic-3′, 5′-AMP stock 100-fold with PDE buffer to make a 200 nM solution. Make only sufficient quantity needed for the assay; store remaining 20 μM stock solution in aliquots at −20° C. • 2) Add 25 μl of FAM-Cyclic-3′,5′-AMP (200 nM) to each well designated “Positive Control”, “Test Inhibitor”, and “Substrate Control”. • 3) Add 20 μl of PDE assay buffer to each well designated “Substrate Control” and 45 μl of PDE assay buffer to each well designated “Blank”. • 4) Add 5 μl of inhibitor solution to each well designated “Test Inhibitor”. For the wells labeled “Positive Control”, “Substrate Control” and “Blank”, add 5 μl of the same solution without inhibitor (inhibitor buffer). • 5) Thaw PDE on ice. Upon first thaw, briefly spin tube containing enzyme to recover the full contents of the tube. • 6) Dilute PDE4 in PDE buffer to 7.5 pg/μl (0.15 ng/reaction)*. Initiate reaction by adding 20 μl of PDE4 (7.5 pg/μl) to the wells designated “Positive Control” and “Test Inhibitor.” • 7) Incubate at room temperature for 1 hour.
(§3) • 1) Mix binding agent thoroughly and dilute binding agent 1:100 with binding agent diluent. • 2) Add 100 μl diluted binding agent to each microwell. Incubate at room temperature for 1 hour with slow shaking. • 3) Read the fluorescent polarization of the sample in a microtiter-plate reader equipped for the measurement of fluorescence polarization, capable of excitation at wavelengths ranging from 485±5 nm and detection of emitted light ranging from 528±10 nm. Blank value is subtracted from all other values.
(§4) 100 µM dilutions of the test compounds were prepared in assay buffer (10% DMSO concentration) and 5 μl of the dilution was added to a 50 μl reaction so that the final concentration of DMSO is 1% in all of reactions.
(§5) The enzymatic reactions were conducted at room temperature for 60 minutes in a 50 μl mixture containing PDE assay buffer, 100 nM FAM-cAMP, a PDE enzyme and the test compound.
(§6) After the enzymatic reaction, 100 Is of a binding solution (1:100 dilution of the binding agent with the binding agent diluent) was added to each reaction and the reaction was performed at room temperature for 60 minutes.
(§7) Fluorescence intensity was measured at an excitation of 485 nm and an emission of 528 nm using a Tecan Infinite M1000 microplate reader.

A further experiment has as its target PDE4B2 (Homo sapiens (Human), UniProt Q07343). As to the kind of experiment: PDE4 percent inhibition assay. The class given is biochemical. As to conditions: for inhibition at 10 µM: read-out: PDE4 Isoform % Inhibition @ 10 μM PDE4B2. How it is done: as §1, §2, §3, §4, §5, §6, §7
For a further experiment, the target named is PDE4D2 (Homo sapiens (Human), UniProt Q08499). As to the kind of experiment: PDE4 percent inhibition assay. In kind it is biochemical. As to conditions: for inhibition at 10 µM: read-out: PDE4 Isoform % Inhibition @ 10 μM PDE4D2. How it is done: as §1, §2, §3, §4, §5, §6, §7
Chain of PDE4D2 (Q08499 303-809, change not shown): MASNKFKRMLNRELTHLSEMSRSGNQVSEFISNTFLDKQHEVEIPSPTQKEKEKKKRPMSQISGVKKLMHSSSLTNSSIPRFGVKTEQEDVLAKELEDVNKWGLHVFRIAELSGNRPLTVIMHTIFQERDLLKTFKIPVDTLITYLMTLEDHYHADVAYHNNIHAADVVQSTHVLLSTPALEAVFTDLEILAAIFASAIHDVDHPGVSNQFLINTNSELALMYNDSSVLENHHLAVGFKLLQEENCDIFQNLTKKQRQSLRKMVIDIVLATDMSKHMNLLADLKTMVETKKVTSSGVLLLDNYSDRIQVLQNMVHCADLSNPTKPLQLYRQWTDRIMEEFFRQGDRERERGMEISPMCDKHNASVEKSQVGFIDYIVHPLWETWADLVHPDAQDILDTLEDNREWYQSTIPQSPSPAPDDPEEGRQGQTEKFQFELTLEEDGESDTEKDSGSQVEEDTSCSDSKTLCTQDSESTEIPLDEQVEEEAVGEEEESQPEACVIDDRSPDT
In another experiment the target is PDE4A1A (Homo sapiens (Human), UniProt P27815). Nature of the experiment: PDE4 percent inhibition assay. As to conditions: for inhibition at 10 µM: read-out: PDE4 Isoform % Inhibition @ 10 μM PDE4A1A. In kind it is biochemical. How it is done: as §1, §2, §3, §4, §5, §6, §7
Chain of PDE4A1A (P27815 other isoform, or with tags, fused parts or gaps): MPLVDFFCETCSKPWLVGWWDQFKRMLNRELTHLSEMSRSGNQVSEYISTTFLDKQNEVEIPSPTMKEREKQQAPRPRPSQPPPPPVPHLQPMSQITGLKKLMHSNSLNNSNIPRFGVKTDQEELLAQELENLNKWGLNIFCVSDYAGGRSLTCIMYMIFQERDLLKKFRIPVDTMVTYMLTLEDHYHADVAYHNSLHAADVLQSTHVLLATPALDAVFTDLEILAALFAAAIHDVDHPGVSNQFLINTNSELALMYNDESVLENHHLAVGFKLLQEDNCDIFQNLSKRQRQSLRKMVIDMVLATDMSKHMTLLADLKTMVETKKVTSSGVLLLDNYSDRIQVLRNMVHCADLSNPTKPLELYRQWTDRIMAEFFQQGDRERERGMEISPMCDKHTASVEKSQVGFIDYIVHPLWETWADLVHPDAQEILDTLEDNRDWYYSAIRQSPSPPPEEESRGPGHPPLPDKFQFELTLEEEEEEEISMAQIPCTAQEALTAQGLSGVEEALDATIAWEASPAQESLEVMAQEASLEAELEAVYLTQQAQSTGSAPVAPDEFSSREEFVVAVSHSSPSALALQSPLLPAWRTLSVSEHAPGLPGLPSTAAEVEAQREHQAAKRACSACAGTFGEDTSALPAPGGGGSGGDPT
The next experiment has as its target SERT (Homo sapiens (Human), UniProt P31645). Nature of the experiment: SERT inhibition assay (Neurotransmitter Transporter Fluorescence assay). The class given is cell-based. As to conditions: class symbols; legend in nM/micromolar. How it is done: SERT inhibition was measured using a Neruotransmitter Transportation Fluorescence assay. Briefly, stable 5HHH cells were prepared in a 384 microwell plate. Compounds were prepared by in assay buffer (20 mM HEPES, 0.1% BSA). The compounds were added to the plated cells and incubated for 30 minutes at 37° C. 25 μL of dye solution (Molecular Devices Neurotransmitter Transporter Uptake Assay Kit) was added per well and incubated for 30 minutes at 37° C. The plates were then read on a plate reader.

Chain of PDE4B2 (Q07343 other isoform, or with tags, fused parts or gaps): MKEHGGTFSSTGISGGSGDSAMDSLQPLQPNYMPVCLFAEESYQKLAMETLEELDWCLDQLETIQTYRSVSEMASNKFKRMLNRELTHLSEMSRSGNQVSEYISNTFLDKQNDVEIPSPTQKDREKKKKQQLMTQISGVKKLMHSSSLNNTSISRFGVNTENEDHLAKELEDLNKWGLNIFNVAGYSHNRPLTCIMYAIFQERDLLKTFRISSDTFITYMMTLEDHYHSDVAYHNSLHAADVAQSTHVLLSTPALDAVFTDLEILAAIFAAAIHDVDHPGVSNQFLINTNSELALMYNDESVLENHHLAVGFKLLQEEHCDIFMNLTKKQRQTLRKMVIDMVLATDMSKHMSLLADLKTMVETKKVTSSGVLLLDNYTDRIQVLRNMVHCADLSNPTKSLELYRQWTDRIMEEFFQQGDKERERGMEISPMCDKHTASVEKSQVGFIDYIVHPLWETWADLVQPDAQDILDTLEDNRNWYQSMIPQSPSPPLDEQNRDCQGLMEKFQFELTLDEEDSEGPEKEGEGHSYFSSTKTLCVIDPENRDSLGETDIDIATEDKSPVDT
Chain of SERT (P31645 whole entry, species assumed): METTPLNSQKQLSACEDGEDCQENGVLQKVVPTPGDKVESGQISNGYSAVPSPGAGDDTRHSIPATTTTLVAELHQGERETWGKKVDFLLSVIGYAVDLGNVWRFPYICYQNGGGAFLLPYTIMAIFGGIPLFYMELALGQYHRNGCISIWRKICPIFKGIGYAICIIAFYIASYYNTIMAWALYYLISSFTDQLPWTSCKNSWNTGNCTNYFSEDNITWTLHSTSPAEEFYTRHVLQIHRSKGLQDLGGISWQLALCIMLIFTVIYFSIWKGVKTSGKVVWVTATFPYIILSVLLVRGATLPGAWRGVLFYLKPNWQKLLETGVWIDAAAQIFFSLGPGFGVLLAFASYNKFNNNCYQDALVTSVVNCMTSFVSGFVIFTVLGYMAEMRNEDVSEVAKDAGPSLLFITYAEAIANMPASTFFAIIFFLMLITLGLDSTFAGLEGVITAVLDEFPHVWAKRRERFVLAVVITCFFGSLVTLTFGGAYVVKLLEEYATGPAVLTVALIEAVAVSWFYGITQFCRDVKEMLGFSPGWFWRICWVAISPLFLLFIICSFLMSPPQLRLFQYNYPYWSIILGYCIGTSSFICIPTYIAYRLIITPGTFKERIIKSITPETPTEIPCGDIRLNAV

For orientation: inhibition means the share of the control response that was lost under treatment. For orientation: IC50 means the midpoint of a concentration-inhibition curve. For `COc1ccc([C@]23CCN(C)[C@H]2CC2(CCO2)CC3)cc1OC` (stereo partly drawn) [Compound 118, (3aS,7aS)-3a-(3,4-dimethoxyphenyl)-1-methyloctahydrospiro[indole-6,2′-oxetane]], the inhibition at 10 µM on PDE4C1 is 30 to 50%; on PDE4B2 it was less than 30%; at PDE4D2, 30 to 50%; on PDE4A1A it was 30 to 50%. The molecule further had an IC50 on SERT of less than 50 nM.

Regarding `COc1ccc([C@]23CC[C@H](n4ccc(C(F)(F)F)n4)C[C@H]2N(C)CC3)cc1OC` [Compound 122], the “PDE4 Isoform % Inhibition @ 10 μM PDE4C1” value at PDE4C1 was “D (D if the percent inhibition is less than 30%)”. Moreover, the “PDE4 Isoform % Inhibition @ 10 μM PDE4B2” value at PDE4B2 is “D (D if the percent inhibition is less than 30%)”. The “PDE4 Isoform % Inhibition @ 10 μM PDE4D2” value at PDE4D2 is given as “D (D if the percent inhibition is less than 30%)”. Also, at PDE4A1A, the “PDE4 Isoform % Inhibition @ 10 μM PDE4A1A” value is given as “D (D if the percent inhibition is less than 30%)”. This molecule also returned an IC50 against SERT greater than 1000 nM.

For the molecule `COc1ccc([C@]23CCN(C)[C@H]2CC2(CCCO2)CC3)cc1OC` (stereo partly shown) [Compound 117, (3a'S,7a'S)-3a′-(3,4-dimethoxyphenyl)-1′-methyldecahydro-3H-spiro[furan-2,6′-indole]], the inhibition at 10 µM is less than 30% on PDE4C1, 30 to 50% at PDE4B2, 30 to 50% at PDE4D2 and 30 to 50% at PDE4A1A. The molecule further gave an IC50 against SERT of less than 50 nM.

For `COc1ccc([C@@]23CC[C@H](N4CCOCC4)C[C@@H]2N(C)CC3)cc1OC` [Compound 108, 4-((3aS,6S,7aS)-3a-(3,4-dimethoxyphenyl)-1-methyloctahydro-1H-indol-6-yl)morpholine], the inhibition at 10 µM at PDE4C1, at PDE4B2, on PDE4D2 and on PDE4A1A was less than 30% in each case. Besides, the IC50 at SERT lay in the range of 100 to 500 nM.

On to `COc1ccc([C@]23CC[C@@H](n4ccc(C(F)(F)F)n4)C[C@H]2N(C)CC3)cc1OC` [Compound 121], for which, on PDE4C1, the “PDE4 Isoform % Inhibition @ 10 μM PDE4C1” value is reported as “D (D if the percent inhibition is less than 30%)”. Moreover, the “PDE4 Isoform % Inhibition @ 10 μM PDE4B2” value on PDE4B2 is “B (B if the percent inhibition is 50-70%)”. Also, the “PDE4 Isoform % Inhibition @ 10 μM PDE4D2” value at PDE4D2 is “B (B if the percent inhibition is 50-70%)”. The “PDE4 Isoform % Inhibition @ 10 μM PDE4A1A” value on PDE4A1A is “D (D if the percent inhibition is less than 30%)”. At SERT, this molecule returned an IC50 of 100 to 500 nM.

In the case of `COc1ccc([C@@]23CC[C@@H](n4cccn4)C[C@@H]2N(C)CC3)cc1OC` [Compound 103, (3aS,6R,7aS)-3a-(3,4-dimethoxyphenyl)-1-methyl-6-(1H-pyrazol-1-yl)octahydro-1H-indole], the inhibition at 10 µM on PDE4C1, at PDE4B2, at PDE4D2 and on PDE4A1A was less than 30% in each case. Moreover, on SERT, the IC50 was less than 50 nM.

As to `COc1ccc([C@@]23CCN(C)[C@@H]2[C@H]2CCC[C@@H]3CC2=O)cc1OC` [Compound 219], on PDE4C1, the “PDE4 Isoform % Inhibition @ 10 μM PDE4C1” value is listed as “B (B if the percent inhibition is 50-70%)”. Further, the “PDE4 Isoform % Inhibition @ 10 μM PDE4B2” value on PDE4B2 is recorded as “C (C is the percent inhibition is 30-50%)”. Also, the “PDE4 Isoform % Inhibition @ 10 μM PDE4D2” value on PDE4D2 is “C (C is the percent inhibition is 30-50%)”. Further, the “PDE4 Isoform % Inhibition @ 10 μM PDE4A1A” value at PDE4A1A is “C (C is the percent inhibition is 30-50%)”. Also, the IC50 against SERT is 100 to 500 nM.

For the molecule `COc1ccc([C@]23CCN(C)[C@H]2[C@@H]2C[C@H]3CC2=O)cc1OC` [Compound 213], at PDE4C1, the “PDE4 Isoform % Inhibition @ 10 μM PDE4C1” value is on record as “A (A if the % inhibition is greater than or equal to 70%)”. For the same molecule, the “PDE4 Isoform % Inhibition @ 10 μM PDE4B2” value at PDE4B2 was “A (A if the % inhibition is greater than or equal to 70%)”. For the same molecule, the “PDE4 Isoform % Inhibition @ 10 μM PDE4D2” value on PDE4D2 is recorded as “A (A if the % inhibition is greater than or equal to 70%)”. In addition, the “PDE4 Isoform % Inhibition @ 10 μM PDE4A1A” value on PDE4A1A was “A (A if the % inhibition is greater than or equal to 70%)”. Further, the IC50 against SERT is greater than 1000 nM.
